For one test, the target named is MELK (Homo sapiens, UniProt Q14680). The test is described as follows: Kinase assay: MELK activity, phosphorylation of FITC-labeled histone H3 peptide measured by IMAP fluorescence polarization. It counts as biochemical. The conditions noted are these: MELK kinase assay, IMAP fluorescence polarization, 50 micro-M ATP; read-out: IC50 (μM) (kinase assay). Put shortly:
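A FITC-labelled histone H3 peptide served as substrate, with compounds serially diluted to 1% DMSO final. Reactions were stopped with three volumes of IMAP progressive binding solution. After 0.5 h at room temperature, fluorescence polarization was read.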
On the technique in general: Polarisation of emitted light reports the rotation of a fluorescent probe.

The subject of a further test is T47D cells. The test is described as follows: Cell-based assay: anti-proliferative activity, Cell Counting Kit-8, 72 hours (T47D). The settings on record: Homo sapiens, T47D, 72 h. Put shortly:
(§1)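 T47D, A549 and BT-549 cells, with MELK-negative HT-1197 as control (MELK status checked by western blot), seeded at 2,000–3,000 cells/well. Growth measured by CCK-8 72 hours after inhibitor exposure; IC50 values calculated.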

The test system of the next test is A549 cells. The test is described as follows: Cell-based assay: anti-proliferative activity, Cell Counting Kit-8, 72 hours (A549). The settings on record: Homo sapiens, A549, 72 h, 72 hours. Put shortly:
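Cell Counting Kit-8 read-out of A549 growth after 72 hours of inhibitor exposure, cells plated in 96-well format. Values reported as IC50.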

For a further test, the system named is HT-1197 cells. The test is described as follows: Cell-based assay: anti-proliferative activity, Cell Counting Kit-8, 72 hours (HT-1197, negative control without MELK expression). The conditions noted are these: Homo sapiens, HT1197, 72 h, HT1197 cells (negative control), 72 hours. Put shortly: as §1
In general terms: Tetrazolium dyes change colour on reduction, which living cells bring about.

The subject of a further test is 22Rv1 cells. Put plainly: Cell-based assay: anti-proliferative activity, Cell Counting Kit-8, 72 hours (22Rv1). The settings on record: Homo sapiens.
The subject of a further test is DU4475 cells. Put plainly: Cell-based assay: anti-proliferative activity, Cell Counting Kit-8, 72 hours (DU4475). The conditions noted are these: Homo sapiens, DU-4475.

We go through 17 compounds from patent US9120749B2, “Quinoline derivatives and MELK inhibitors containing the same” (ONCOTHERAPY SCIENCE, INC., priority 2010, dated 2015).

Structures are written as SMILES. Structures can show the parent of a compound that is named as a salt.

Sequence of MELK (Q14680 whole entry, looked up): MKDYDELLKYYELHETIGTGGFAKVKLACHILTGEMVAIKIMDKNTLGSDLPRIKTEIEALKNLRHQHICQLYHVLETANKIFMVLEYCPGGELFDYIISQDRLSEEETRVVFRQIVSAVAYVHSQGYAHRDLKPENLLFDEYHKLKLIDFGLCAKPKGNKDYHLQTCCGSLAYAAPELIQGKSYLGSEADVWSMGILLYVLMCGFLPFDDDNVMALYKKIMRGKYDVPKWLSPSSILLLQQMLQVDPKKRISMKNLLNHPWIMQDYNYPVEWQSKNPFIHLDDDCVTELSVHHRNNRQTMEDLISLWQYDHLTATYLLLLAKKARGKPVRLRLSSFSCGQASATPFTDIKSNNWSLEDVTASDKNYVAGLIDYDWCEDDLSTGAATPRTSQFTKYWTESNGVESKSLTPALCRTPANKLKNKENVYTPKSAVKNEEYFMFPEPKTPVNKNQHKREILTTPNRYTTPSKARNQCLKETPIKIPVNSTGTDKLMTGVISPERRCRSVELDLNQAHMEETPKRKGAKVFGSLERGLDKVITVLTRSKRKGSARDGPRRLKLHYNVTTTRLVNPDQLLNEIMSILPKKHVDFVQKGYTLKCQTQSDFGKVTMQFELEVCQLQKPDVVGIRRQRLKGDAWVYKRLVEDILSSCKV

By IC50 is commonly meant the concentration that gives 50% inhibition. With `CC(=O)c1cnc2cc(F)c(-c3cc(Cl)c(O)c(Cl)c3)cc2c1N[C@H]1CC[C@H](CN(C)C)CC1` [Example 903, 1-(6-(3,5-dichloro-4-hydroxyphenyl)-4-((1R,4R)-4-((dimethylamino)methyl)cyclohexyl)amino)-7-fluoroquinolin-3-yl)ethanone hydrochloride], the IC50 on MELK amounted to 0.0017 µM; in the test with T47D cells, 0.55 µM; in the test with A549 cells, 0.36 µM; with HT-1197 cells it was 1.5 µM; with 22Rv1 cells it was 0.27 µM; in the test on DU4475 cells, 0.16 µM.

Turning to `CC(=O)c1cnc2cc(F)c(-c3cc(F)c(O)c(Cl)c3)cc2c1N[C@H]1CC[C@H](CN(C)C)CC1` [Example 904, 1-(6-(3-chloro-5-fluoro-4-hydroxy-phenyl)-4-((1R,4R)-4-((dimethylamino)methyl)cyclohexyl)amino)-7-fluoro-quinolin-3-yl)ethanone hydrochloride], the IC50 came out at 0.017 µM on MELK; 0.51 µM with T47D cells; 0.43 µM in the test with A549 cells; 1.6 µM in the test on HT-1197 cells; 0.33 µM with 22Rv1 cells; 0.26 µM in the test on DU4475 cells.

Take `CC(=O)c1cnc2ccc(-c3cc(F)c(O)c(Cl)c3)cc2c1N[C@H]1CC[C@H](NC(=O)C(N)C(C)C)CC1` (stereo partly drawn) [Example 907]: the half-inhibitory concentration (IC50) came to 0.0047 µM at MELK; 0.016 µM in the test on T47D cells; 0.18 µM in the test on A549 cells; 3.7 µM with HT-1197 cells; 0.059 µM in the test on 22Rv1 cells; 0.033 µM in the test on DU4475 cells.

For the compound `CS(=O)(=O)c1cnc2ccc(-c3cc(F)c(O)c(Cl)c3)cc2c1Nc1ccc(N2CCCC(N)C2)nc1` (stereo not drawn) [Example 909, 4-(4-(6-(3-aminopiperidin-1-yl)pyridin-3-ylamino)-3-(methylsulfonyl)quinolin-6-yl)-2-chloro-6-fluorophenol], the half-maximal inhibitory concentration (IC50) at MELK came out at 0.0016 µM; in the test on T47D cells it was 0.19 µM; with A549 cells, 2.8 µM; with HT-1197 cells it was 10 µM; in the test with 22Rv1 cells, 0.44 µM; in the test with DU4475 cells it was 0.042 µM.

As for `CC(=O)c1cnc2ccc(-c3ccc4[nH]ncc4c3)cc2c1N[C@H]1CC[C@H](CN(C)C)CC1` [Example 910, 1-(4-((1R,4R)-4-((dimethylamino)methyl)cyclohexyl)amino)-6-(1H-indazol-5-yl)quinolin-3-yl)ethanone hydrochloride], the half-maximal inhibitory concentration (IC50) on MELK is 0.1 µM; in the test with T47D cells it was 6 µM; with A549 cells, 2.6 µM; in the test on HT-1197 cells, 9.8 µM; in the test with 22Rv1 cells, 3.4 µM; in the test with DU4475 cells it was 5.4 µM.

For the compound `CC(=O)c1cnc2ccc(-c3ccc4nc[nH]c4c3)cc2c1N[C@H]1CC[C@H](CN(C)C)CC1` [Example 911, 1-(6-(1H-benzo[d]imidazol-6-yl)-4-((1R,4R)-4-((dimethylamino)methyl)cyclohexyl)amino)quinolin-3-yl) ethanone hydrochloride], the IC50 is 0.13 µM on MELK; 10 µM with T47D cells; 3.2 µM in the test on A549 cells; 13 µM with HT-1197 cells; 5.4 µM in the test on 22Rv1 cells; 10 µM in the test with DU4475 cells.

As to `CC(=O)c1cnc2ccc(-c3cn[nH]c3)cc2c1N[C@H]1CC[C@H](CN(C)C)CC1` [Example 912, 1-(4-((1R,4R)-4-((dimethylamino)methyl)cyclohexyl)amino)-6-(1H-pyrazol-4-yl)quinolin-3-yl)ethanone hydrochloride], the IC50 on MELK was found to be 0.074 µM; in the test with T47D cells, 4.2 µM; in the test on A549 cells, 1.3 µM; with HT-1197 cells, 3 µM; with 22Rv1 cells it was 1.7 µM; in the test with DU4475 cells, 1.4 µM.

Take `CS(=O)(=O)c1cnc2ccc(-c3cc(Cl)c(O)c(Cl)c3)cc2c1Nc1ccc(N2CCCC(N)C2)nc1` (stereo not drawn) [Example 913, 4-(4-(6-(3-aminopiperidin-1-yl)pyridin-3-ylamino)-3-(methylsulfonyl)quinolin-6-yl)-2,6-dichlorophenol]: the 50% inhibitory concentration (IC50) was 0.00094 µM on MELK; 0.27 µM with T47D cells; 2.6 µM in the test on A549 cells; 100 µM with HT-1197 cells; 0.58 µM in the test with 22Rv1 cells; 0.025 µM with DU4475 cells.

Consider `CC(=O)c1cnc2ccc(-c3cc(F)c(O)c(Cl)c3)cc2c1N[C@H]1CC[C@H](NC(=O)[C@@H](N)C(C)(C)C)CC1` [Example 914, (S)-N-((1r,4S)-4-((3-acetyl-6-(3-chloro-5-fluoro-4-hydroxyphenyl)quinolin-4-yl)amino)cyclohexyl)-2-amino-3,3-dimethylbutanamide hydrochloride], for which the IC50 was determined as 0.028 µM on MELK; 0.075 µM with T47D cells; 0.65 µM in the test with A549 cells; 3.6 µM in the test with HT-1197 cells; 0.28 µM in the test with 22Rv1 cells; 0.19 µM in the test with DU4475 cells.

`CC(=O)c1cnc2ccc(-c3cc(Cl)c(O)c(Cl)c3)cc2c1N[C@H]1CC[C@H](NC(=O)C(N)C(C)C)CC1` (stereo partly drawn) [Example 915]: the IC50 on MELK is 0.0031 µM; in the test with T47D cells it was 0.053 µM; with A549 cells, 0.29 µM; in the test with HT-1197 cells it was 3.5 µM; in the test with 22Rv1 cells, 0.099 µM; in the test with DU4475 cells, 0.062 µM.

As to `COc1cc(-c2ccc3ncc(C(=O)C4CCCC4)c(N[C@H]4CC[C@H](CN(C)C)CC4)c3c2)cc(Cl)c1O` [Example 916, (6-(3-chloro-4-hydroxy-5-methoxy-phenyl)-4-((1R,4R)-4-((dimethyl-amino)methyl)cyclohexyl)amino) quinolin-3-yl)(cyclopentyl) methanone hydrochloride], the half-inhibitory concentration (IC50) on MELK was found to be 0.0048 µM; in the test with T47D cells, 1.2 µM; with A549 cells, 1.1 µM; with HT-1197 cells, 3.1 µM; in the test with 22Rv1 cells it was 1.5 µM; in the test with DU4475 cells, 1 µM.

Take `CN(C)C[C@H]1CC[C@H](Nc2c(C(=O)C(C)(C)C)cnc3ccc(-c4cc(F)c(O)c(Cl)c4)cc23)CC1` [Example 919, 1-(6-(3-chloro-5-fluoro-4-hydroxy-phenyl)-4-((1R,4R)-4-((dimethylamino)methyl)cyclohexyl)amino)quinolin-3-yl)-2,2-dimethylpropan-1-one hydrochloride]: the concentration for half-maximal inhibition (IC50) at MELK worked out at 0.034 µM; with T47D cells, 1.9 µM; in the test with A549 cells, 4.3 µM; in the test with HT-1197 cells, 6.4 µM; in the test on 22Rv1 cells, 3.5 µM; in the test with DU4475 cells it was 2.5 µM.

Turning to `CC(=O)c1cnc2ccc(-c3cc(Cl)c(O)c(Cl)c3)cc2c1N[C@H]1CC[C@H](NC(=O)[C@@H]2CCCN2)CC1` [Example 920, (S)—N-((1R,4S)-4-(3-acetyl-6-(3,5-dichloro-4-hydroxyphenyl)quinolin-4-ylamino)cyclohexyl)pyrrolidine-2-carboxamide], the IC50 on MELK was 0.0019 µM; in the test on T47D cells it was 0.1 µM; in the test with A549 cells, 0.86 µM; in the test on HT-1197 cells, 6.5 µM; in the test on 22Rv1 cells, 0.34 µM; in the test with DU4475 cells it was 0.073 µM.

In the case of `CC(=O)c1cnc2ccc(-c3cc(F)c(O)c(Cl)c3)cc2c1N[C@H]1CC[C@H](NC(=O)[C@@H]2CCCN2)CC1` [Example 921, (S)—N-((1R,4S)-4-(3-acetyl-6-(3-chloro-5-fluoro-4-hydroxyphenyl)quinolin-4-ylamino)cyclohexyl)pyrrolidine-2-carboxamide], the half-maximal inhibitory concentration (IC50) at MELK stood at 0.012 µM; in the test on T47D cells it was 0.048 µM; in the test with A549 cells, 1.2 µM; with HT-1197 cells, 10 µM; in the test with 22Rv1 cells it was 0.21 µM; with DU4475 cells, 0.068 µM.

Consider `CC(=O)c1cnc2cc(F)c(-c3cc(Cl)c(O)c(Cl)c3)cc2c1N[C@H]1CC[C@H](CN2CCCC2)CC1` [Example 923, 1-(6-(3,5-dichloro-4-hydroxyphenyl)-7-fluoro-4-((1R,4R)-4-(pyrrolidin-1-ylmethyl)cyclohexyl)amino)quinolin-3-yl)ethanone hydrochloride], for which the IC50 was found to be 0.007 µM on MELK; 0.63 µM in the test on T47D cells; 0.39 µM with A549 cells; 2.5 µM in the test with HT-1197 cells; 0.29 µM in the test on 22Rv1 cells; 0.2 µM with DU4475 cells.

In the case of `COc1cc(-c2ccc3ncc(C(=O)C4CCCC4)c(Nc4cccc(CCN5CCCC5)c4)c3c2)cc(Cl)c1O` [Example 924, (6-(3-chloro-4-hydroxy-5-methoxy-phenyl)-4-((3-(2-(pyrrolidin-1-yl)ethyl)phenyl)amino)quinolin-3-yl) (cyclopentyl)methanone hydrochloride], the concentration for half-maximal inhibition (IC50) on MELK amounted to 0.018 µM; in the test with T47D cells it was 3.2 µM; in the test with A549 cells, 3.7 µM; in the test with HT-1197 cells, 3.3 µM; with 22Rv1 cells, 3 µM; in the test on DU4475 cells it was 1.8 µM.

Consider `CC(=O)c1cnc2cc(F)c(-c3cc(F)c(O)c(Cl)c3)cc2c1N[C@H]1CC[C@H](CN2CCCC2)CC1` [Example 925, 1-(6-(3-chloro-5-fluoro-4-hydroxy-phenyl)-7-fluoro-4-((1R,4R)-4-(pyrrolidin-1-ylmethyl)cyclohexyl)amino)quinolin-3-yl)ethanone hydrochloride], for which the IC50 worked out at 0.019 µM on MELK; 0.52 µM in the test on T47D cells; 0.38 µM in the test with A549 cells; 1.5 µM in the test on HT-1197 cells; 0.27 µM in the test with 22Rv1 cells; 0.27 µM in the test with DU4475 cells.
